The source of these data is ChEMBL document CHEMBL1201862, “PubChem BioAssay data set” (2004).

Some targets named below: Cytochrome P450 3A4 (Homo sapiens, UniProt P08684); Cytochrome P450 2D6 (Homo sapiens, UniProt P10635); Cytochrome P450 2C9 (Homo sapiens, UniProt P11712).
For another experiment, the target named is Cytochrome P450 2C19 (Homo sapiens, UniProt P33261). The experiment can be described thus: Cytochrome panel assay with activity outcomes. Panel member name: p450-cyp2c19 Compounds with AC50 equal or less than 10 uM are considered active. The experiment is classed as functional. To be noted: read-out: AC50.
Cytochrome P450 2C19, sequence (P33261 whole entry): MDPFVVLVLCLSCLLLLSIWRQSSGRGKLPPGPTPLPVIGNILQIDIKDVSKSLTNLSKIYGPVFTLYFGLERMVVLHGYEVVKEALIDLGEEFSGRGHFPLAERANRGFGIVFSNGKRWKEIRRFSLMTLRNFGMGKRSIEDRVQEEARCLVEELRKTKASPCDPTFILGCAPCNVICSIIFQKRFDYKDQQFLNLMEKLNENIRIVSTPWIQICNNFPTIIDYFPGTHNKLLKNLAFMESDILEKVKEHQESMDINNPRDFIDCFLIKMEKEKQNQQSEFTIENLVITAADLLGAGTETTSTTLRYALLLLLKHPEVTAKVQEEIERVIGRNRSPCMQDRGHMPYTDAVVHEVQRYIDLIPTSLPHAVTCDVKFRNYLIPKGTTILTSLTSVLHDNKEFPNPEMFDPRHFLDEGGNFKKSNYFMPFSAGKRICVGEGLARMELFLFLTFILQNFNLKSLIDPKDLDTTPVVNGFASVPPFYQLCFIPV
Experiment [1] has as its target T1, Replicative DNA helicase DnaB (Mycobacterium tuberculosis, UniProt P9WMR3).
T1 sequence (P9WMR3 whole entry): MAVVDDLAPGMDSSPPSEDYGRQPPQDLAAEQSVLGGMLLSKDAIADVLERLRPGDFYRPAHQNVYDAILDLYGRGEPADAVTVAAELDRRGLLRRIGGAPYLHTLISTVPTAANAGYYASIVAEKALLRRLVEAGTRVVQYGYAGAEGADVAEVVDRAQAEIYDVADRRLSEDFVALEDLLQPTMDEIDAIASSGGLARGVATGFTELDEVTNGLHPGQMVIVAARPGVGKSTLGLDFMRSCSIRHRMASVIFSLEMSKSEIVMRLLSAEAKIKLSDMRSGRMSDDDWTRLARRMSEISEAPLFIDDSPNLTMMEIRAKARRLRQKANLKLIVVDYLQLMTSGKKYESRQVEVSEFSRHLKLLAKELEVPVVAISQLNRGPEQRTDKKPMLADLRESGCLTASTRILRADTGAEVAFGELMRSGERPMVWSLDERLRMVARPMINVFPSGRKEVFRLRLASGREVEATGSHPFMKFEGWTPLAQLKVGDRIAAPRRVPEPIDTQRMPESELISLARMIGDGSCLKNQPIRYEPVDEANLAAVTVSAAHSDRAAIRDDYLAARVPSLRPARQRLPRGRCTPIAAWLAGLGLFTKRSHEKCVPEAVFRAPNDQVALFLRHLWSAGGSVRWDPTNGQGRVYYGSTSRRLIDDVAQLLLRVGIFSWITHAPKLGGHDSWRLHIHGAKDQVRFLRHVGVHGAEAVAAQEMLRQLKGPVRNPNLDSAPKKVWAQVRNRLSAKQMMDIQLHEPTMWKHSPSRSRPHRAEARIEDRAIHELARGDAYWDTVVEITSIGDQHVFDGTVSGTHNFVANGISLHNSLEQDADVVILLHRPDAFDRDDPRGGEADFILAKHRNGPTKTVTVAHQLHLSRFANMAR
Briefly: DnaB intein splicing inhibitors, dose response, biochemical, cell-free fluorescence (AID 449749). Type of experiment: functional.

A further experiment has as its target T2, Protein RecA (Mycobacterium tuberculosis, UniProt P9WHJ3).
T2 sequence (P9WHJ3 whole entry): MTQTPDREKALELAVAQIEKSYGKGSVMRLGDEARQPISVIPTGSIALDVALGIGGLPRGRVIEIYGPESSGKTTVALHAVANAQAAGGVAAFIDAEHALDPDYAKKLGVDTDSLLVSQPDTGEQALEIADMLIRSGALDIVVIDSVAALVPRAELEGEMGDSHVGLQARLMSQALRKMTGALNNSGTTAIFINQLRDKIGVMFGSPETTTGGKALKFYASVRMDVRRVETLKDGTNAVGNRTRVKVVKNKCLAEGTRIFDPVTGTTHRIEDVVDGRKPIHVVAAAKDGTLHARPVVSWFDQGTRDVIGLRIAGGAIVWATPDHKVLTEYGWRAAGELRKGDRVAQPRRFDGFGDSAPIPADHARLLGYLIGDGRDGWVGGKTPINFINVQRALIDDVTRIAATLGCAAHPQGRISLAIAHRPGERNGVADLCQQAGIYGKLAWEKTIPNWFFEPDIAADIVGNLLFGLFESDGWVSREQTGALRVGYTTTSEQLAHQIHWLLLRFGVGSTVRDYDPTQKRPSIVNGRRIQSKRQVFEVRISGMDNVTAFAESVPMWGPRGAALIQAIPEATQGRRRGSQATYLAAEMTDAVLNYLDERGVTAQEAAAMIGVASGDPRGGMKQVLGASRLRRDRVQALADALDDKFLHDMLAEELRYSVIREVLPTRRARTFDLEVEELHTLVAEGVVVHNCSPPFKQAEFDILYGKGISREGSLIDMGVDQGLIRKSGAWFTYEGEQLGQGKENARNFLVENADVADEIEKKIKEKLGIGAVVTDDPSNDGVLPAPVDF
Briefly: Fluorescence Cell-Free Homogeneous Dose Retest to Identify Inhibitors of RecA-Intein Splicing Activity. [Related pubchem assays (depositor defined):AID2097, AID2223, AID489010, AID492950]. The experiment is classed as functional.

In experiment [2] the target is T3, Heat shock factor protein 1 (Mus musculus, UniProt P38532).
T3 sequence (P38532 whole entry): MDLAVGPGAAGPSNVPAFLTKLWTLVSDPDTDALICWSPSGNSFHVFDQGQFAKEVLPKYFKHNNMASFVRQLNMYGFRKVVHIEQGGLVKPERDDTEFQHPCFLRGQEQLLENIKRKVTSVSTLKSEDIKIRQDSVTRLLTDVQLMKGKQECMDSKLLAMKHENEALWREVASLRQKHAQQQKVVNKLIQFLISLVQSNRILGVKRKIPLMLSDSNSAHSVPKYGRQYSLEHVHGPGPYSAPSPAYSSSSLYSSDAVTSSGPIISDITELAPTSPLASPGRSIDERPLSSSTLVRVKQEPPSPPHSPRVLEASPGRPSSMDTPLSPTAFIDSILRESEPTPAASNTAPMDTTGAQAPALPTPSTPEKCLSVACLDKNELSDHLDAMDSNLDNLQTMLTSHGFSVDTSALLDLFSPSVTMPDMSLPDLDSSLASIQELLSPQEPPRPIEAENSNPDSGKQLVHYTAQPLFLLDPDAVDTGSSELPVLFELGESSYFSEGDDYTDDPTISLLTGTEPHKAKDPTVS
Briefly: inhibition of MG132-induced HSE-luciferase signal, confirmation, cell-based, NIH3T3, luminescence, dose retest (AID 2382).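 Also: NIH3T3 fibroblasts with HSF1-driven luciferase reporter stressed by proteasome inhibitor MG132; luminescence from HSF1-driven luciferase expression after 8 hours of MG132 stress.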 The experiment is classed as functional.

The nature of experiment [3]: C. albicans growth with fluconazole, confirmation, fluorescence, retest (AID 2467). The experiment is classed as functional, cell-based.

SMILES strings stand for the structures. “And” between values parts separate entries of the source, which are not always exact repeats. Identical values can stand only once. The source made the active and inactive calls.

The AC50 is the midpoint of the concentration-response curve, whichever way the signal moves. By EC50 is commonly meant the concentration at which the effect is half-maximal.

Cytochrome P450 3A4, sequence (P08684 whole entry): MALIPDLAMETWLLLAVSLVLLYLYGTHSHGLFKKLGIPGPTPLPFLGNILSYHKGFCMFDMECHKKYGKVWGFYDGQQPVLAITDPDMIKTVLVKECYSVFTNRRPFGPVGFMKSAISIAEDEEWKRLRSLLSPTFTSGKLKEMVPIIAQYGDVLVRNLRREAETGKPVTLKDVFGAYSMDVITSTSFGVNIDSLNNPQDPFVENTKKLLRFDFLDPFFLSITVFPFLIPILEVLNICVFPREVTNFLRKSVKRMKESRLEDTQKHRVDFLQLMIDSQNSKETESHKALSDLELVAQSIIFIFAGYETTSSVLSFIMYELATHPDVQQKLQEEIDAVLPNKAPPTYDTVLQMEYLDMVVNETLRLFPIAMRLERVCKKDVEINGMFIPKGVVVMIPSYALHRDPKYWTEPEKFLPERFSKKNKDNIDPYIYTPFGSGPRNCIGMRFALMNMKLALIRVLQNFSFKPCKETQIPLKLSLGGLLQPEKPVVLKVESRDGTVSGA
Cytochrome P450 2C9, sequence (P11712 whole entry): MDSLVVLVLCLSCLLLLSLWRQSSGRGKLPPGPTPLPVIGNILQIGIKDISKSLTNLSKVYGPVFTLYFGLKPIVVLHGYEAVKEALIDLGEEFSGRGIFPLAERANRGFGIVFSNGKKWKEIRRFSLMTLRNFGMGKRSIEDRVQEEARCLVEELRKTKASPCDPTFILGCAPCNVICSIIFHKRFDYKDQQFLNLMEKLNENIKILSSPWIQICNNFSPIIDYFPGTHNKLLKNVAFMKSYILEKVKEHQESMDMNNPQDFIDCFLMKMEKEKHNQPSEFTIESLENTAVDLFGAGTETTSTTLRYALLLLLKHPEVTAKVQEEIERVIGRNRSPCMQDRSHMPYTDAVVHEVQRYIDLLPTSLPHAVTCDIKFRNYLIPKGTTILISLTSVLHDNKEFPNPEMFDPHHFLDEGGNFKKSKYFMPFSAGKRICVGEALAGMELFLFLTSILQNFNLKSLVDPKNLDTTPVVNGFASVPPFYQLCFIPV
Cytochrome P450 2D6, sequence (P10635 whole entry): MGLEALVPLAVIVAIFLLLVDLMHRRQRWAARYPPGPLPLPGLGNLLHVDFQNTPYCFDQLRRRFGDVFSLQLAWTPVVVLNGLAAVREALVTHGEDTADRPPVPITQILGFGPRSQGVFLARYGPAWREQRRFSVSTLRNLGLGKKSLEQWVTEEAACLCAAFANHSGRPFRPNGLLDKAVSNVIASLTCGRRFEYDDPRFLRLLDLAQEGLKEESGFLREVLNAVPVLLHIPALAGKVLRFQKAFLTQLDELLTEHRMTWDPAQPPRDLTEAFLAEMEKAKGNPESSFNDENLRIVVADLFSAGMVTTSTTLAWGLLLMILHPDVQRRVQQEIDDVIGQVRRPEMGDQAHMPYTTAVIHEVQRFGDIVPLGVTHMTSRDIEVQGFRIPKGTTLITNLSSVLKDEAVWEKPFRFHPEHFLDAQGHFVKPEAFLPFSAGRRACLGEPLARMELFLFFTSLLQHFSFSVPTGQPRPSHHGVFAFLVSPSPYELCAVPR

As to `O=C(c1c(O)nc2cc(Cl)ccc2c1O)C1CC1`, the half-maximal activity concentration (AC50) on Cytochrome P450 3A4 was 0.00316 µM (inconclusive).

Take `CN(Cc1ccco1)C(=O)C1CCC(=O)N1Cc1ccc(F)cc1` (configuration not stated): the AC50 at Cytochrome P450 2D6 was 25.1 µM (inconclusive).

`N#CCCSC(=S)[C@H]1CCCC1=N`: the AC50 at Cytochrome P450 2C19 is 5.01 µM (inconclusive); at Cytochrome P450 3A4, 2.51 µM (inconclusive).

On to `FC(F)(F)c1ccccc1-c1nc(NC2CC2)c2ccccc2n1`, for which the AC50 at Cytochrome P450 2C19 was 10 µM (inconclusive); on Cytochrome P450 2D6, 31.6 µM (inconclusive).

As to `CN1CCN(c2ncc3nc(-c4cn(C)c5ccccc45)c(=O)n(CCC#N)c3n2)CC1`, the AC50 on Cytochrome P450 2C19 was 39.8 µM (inconclusive); on Cytochrome P450 2D6 it was 39.8 µM (inconclusive); at Cytochrome P450 3A4, 25.1 µM (inconclusive); at Cytochrome P450 2C9, 39.8 µM (inconclusive).

For `COc1ccc(-c2cc(C(F)(F)F)n3nc(C(=O)NCc4ccco4)c(Cl)c3n2)cc1`, the AC50 is 1.78 µM (inconclusive) on Cytochrome P450 2C19 and 3.16 µM (inconclusive) at Cytochrome P450 3A4.

For the compound `CCOc1cc(/C=C(\C#N)C(=O)Nc2cccc(C(=O)O)c2)cc(Br)c1OC(=O)c1ccc(OC)cc1`, in experiment [1], the AC50 was 4.04 µM (active). Further, the EC50 at Protein RecA is 13.2 µM (active).

In the case of `CC(=O)c1cc(C#N)c(Oc2cccc(C(F)(F)F)c2)nc1C`, on Cytochrome P450 2C9, the AC50 is 25.1 µM (inconclusive).

Consider `COC(=O)[C@H]1C[C@@H]1[C@H](NC(=O)c1cnccn1)c1ccccc1`, for which the AC50 at Cytochrome P450 3A4 is 7.94 µM (inconclusive).

As for `CCOc1cc(/C=C2\C(=N)N3N=C(S(=O)(=O)CC)SC3=NC2=O)ccc1OC(=O)c1ccco1`, the AC50 in experiment [1] is > 380 µM (inactive). The EC50 at Protein RecA was 22.1 µM (active).

Turning to `CC[C@@]1(c2ccc(N)cc2)CCC(=O)NC1=O`, on Cytochrome P450 3A4, the AC50 is 12.6 µM (inconclusive) and 10 µM (inconclusive).

`O=C1c2ccccc2CC[C@H]1CNCCc1ccc(O)cc1`: the AC50 on Cytochrome P450 2C19 was 31.6 µM (inconclusive); on Cytochrome P450 3A4, 7.94 µM (inconclusive); at Cytochrome P450 2C9, 39.8 µM (inconclusive).

For `CCOc1ccc(C(=O)C2=C(O)C(=O)N(CCCn3ccnc3)C2c2cccs2)cc1Cl` (configuration not stated), the EC50 in experiment [2] is > 195 µM (not active). Further, the AC50 on Cytochrome P450 2D6 was 14.1 µM (inconclusive).

As to `c1nc(NC2CCNCC2)c2cc(-c3ccc4c(c3)OCO4)ccc2n1`, on Cytochrome P450 2D6, the AC50 was 20 µM (inconclusive).

For the compound `Cc1ccc(S(=O)(=O)O[C@H]2CN3CCC2CC3)cc1`, at Cytochrome P450 2D6, the AC50 is 3.98 µM (inconclusive).

Regarding `CCOC(=O)C1CCCN(C(=O)CCn2nc(-c3ccccc3)ccc2=O)C1` (configuration not stated), the results for the AC50 at Cytochrome P450 3A4 and on Cytochrome P450 2C9 were 17.8 µM (inconclusive) and 31.6 µM (inconclusive), respectively.

`Cc1cc(OCC(=O)OC(C)C)c2c3c(c(=O)oc2c1)CCCC3`: on Cytochrome P450 3A4, the AC50 is 28.2 µM (inconclusive).

As for `COc1cccc(Nc2ncc3nc(-c4ccc(Cl)cc4)c(=O)n(C[C@H]4CCCO4)c3n2)c1`, at Cytochrome P450 3A4, the concentration at half-maximal activity (AC50) was 15.8 µM (inconclusive).

Regarding `CNC(=O)/C=C1\NC(C)(C)Cc2c1ccc1ccccc21`, the AC50 on Cytochrome P450 3A4 is 15.8 µM (inconclusive); at Cytochrome P450 2C9, 5.01 µM (inconclusive).

In the case of `O=[N+]([O-])c1ccc2c(/N=N\c3ccc4ccccc4c3O)c(O)cc(S(=O)(=O)O)c2c1`, the AC50 at Cytochrome P450 2C19 was 2.51 µM (inconclusive); on Cytochrome P450 2D6 it was 0.631 µM (inconclusive); at Cytochrome P450 3A4 it was 3.98 µM (inconclusive).

For the compound `Cc1ccc(S(=O)(=O)n2c3ccccc3c3nnc(C(=O)c4ccccc4)nc32)cc1`, the AC50 at Cytochrome P450 2C19 is 0.0126 µM (inconclusive); at Cytochrome P450 2C9, 3.16 µM (inconclusive).

As for `Cc1[nH]c2ccccc2c1C(c1ccccn1)N1CCC(C)CC1` (configuration not stated), on Cytochrome P450 2D6, the AC50 was 25.1 µM (inconclusive).

Consider `Nc1ccc(SCCN2C(=O)c3ccccc3C2=O)cc1`, for which the EC50 in experiment [3] is on record as > 38 µM (not active).

As to `Cc1cc(C)c(S(C)(=O)=O)c(Oc2cccc(C(F)(F)F)c2)n1`, the AC50 in experiment [1] was 213 µM (active). The EC50 at Protein RecA was > 380 µM (inactive).

For `COc1cccc(C(=O)O/N=C(\N)c2ccc([N+](=O)[O-])cc2)c1OC`, the AC50 in experiment [1] was > 380 µM (inactive). Also, the EC50 at Protein RecA was > 380 µM (inactive).

In the case of `COCCn1c(C(=O)N(C)C)cc2c1C[C@H]1CN(C(=O)c3ccccc3)[C@@](Cc3ccc(F)cc3)(C(=O)OC)[C@@H]21`, the AC50 at Cytochrome P450 2C19 was 39.8 µM (inconclusive); at Cytochrome P450 2C9, 25.1 µM (inconclusive).

As to `COc1ncc2nc(-c3cc(F)cc(F)c3)c(=O)n(CCC#N)c2n1`, on Cytochrome P450 3A4, the AC50 was 20 µM (inconclusive).

For the compound `Cn1ncc([N+](=O)[O-])c1C(=O)Nc1ccc2c(c1)OCCO2`, the AC50 on Cytochrome P450 2C19 was 0.0355 µM (inconclusive); at Cytochrome P450 2D6 it was 12.6 µM (inconclusive); at Cytochrome P450 2C9, 11.2 µM (inconclusive).

With `C/C(CC(=O)Nc1cc(C)ccn1)=N\NC(=O)C(=O)NC(C)C`, in experiment [1], the AC50 was 19.6 µM (active). At Protein RecA, the EC50 was 4.48 µM (active).

In the case of `C/C(=C\C(=O)c1ccc(Cl)cc1)NCc1ccc2c(c1)OCO2`, the AC50 at Cytochrome P450 2D6 was 5.01 µM (inconclusive); on Cytochrome P450 3A4 it was 0.794 µM (inconclusive).

As for `COc1ccccc1CNc1ncnc2ccc(-c3ccc(C(=O)N(C)C)cc3)cc12`, the AC50 was 20 µM (inconclusive) at Cytochrome P450 2C19 and 39.8 µM (inconclusive) at Cytochrome P450 2D6.

For `CCCCCCCCC(=O)NCc1ccc(O)c(OC)c1` [NONIVAMIDE], the AC50 on Cytochrome P450 2C19 was 7.94 µM (inconclusive); on Cytochrome P450 2D6, 25.1 µM (inconclusive).
